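Interpolation was linear, between the two tested concentrations surrounding the appropriate level; five concentrations were tested over 48 hours in 96-well plates. GI50 = concentration required for 50% inhibition of growth. TGI denotes the concentration required for complete inhibition of growth.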
Key:
Assay in all cases: DTP human tumour cell line panel, 48 h
HOP-62 NSCLC = test system: HOP-62 NSCLC
UACC-62 melanoma = test system: UACC-62 melanoma
PC-3 prostate = test system: PC-3 prostate
MDA-MB-231 breast = test system: MDA-MB-231 breast
SK-MEL-5 melanoma = test system: SK-MEL-5 melanoma
NCI-H23 lung = test system: NCI-H23 lung
SF-268 CNS = test system: SF-268 CNS
HOP-92 NSCLC = test system: HOP-92 NSCLC
SF-295 CNS = test system: SF-295 CNS
UACC-257 melanoma = test system: UACC-257 melanoma
SK-OV-3 ovarian = test system: SK-OV-3 ovarian
M14 melanoma = test system: M14 melanoma
MCF7 breast = test system: MCF7 breast
T-47D breast = test system: T-47D breast
SW-620 colon = test system: SW-620 colon
OVCAR-8 ovarian = test system: OVCAR-8 ovarian
IGROV1 ovarian = test system: IGROV1 ovarian
RPMI-8226 leukemia = test system: RPMI-8226 leukemia
NCI/ADR-RES ovarian = test system: NCI/ADR-RES ovarian
OVCAR-4 ovarian = test system: OVCAR-4 ovarian
786-0 renal = test system: 786-0 renal
K-562 leukemia = test system: K-562 leukemia
HS 578T breast = test system: HS 578T breast
CAKI-1 renal = test system: CAKI-1 renal
UO-31 renal = test system: UO-31 renal
SF-539 CNS = test system: SF-539 CNS
MALME-3M melanoma = test system: MALME-3M melanoma
OVCAR-5 ovarian = test system: OVCAR-5 ovarian
A498 renal = test system: A498 renal
TK-10 renal = test system: TK-10 renal
ACHN renal = test system: ACHN renal
HCT-15 colon = test system: HCT-15 colon
SN12C renal = test system: SN12C renal
NCI-H522 lung = test system: NCI-H522 lung
A549 NSCLC = test system: A549 NSCLC
EKVX NSCLC = test system: EKVX NSCLC
NCI-H226 lung = test system: NCI-H226 lung
RXF 393 renal = test system: RXF 393 renal
SK-MEL-28 melanoma = test system: SK-MEL-28 melanoma
KM12 colon = test system: KM12 colon
SR leukemia = test system: SR leukemia
SNB-75 CNS = test system: SNB-75 CNS
SK-MEL-2 melanoma = test system: SK-MEL-2 melanoma
HT29 colon = test system: HT29 colon
U251 CNS = test system: U251 CNS
MDA-MB-435 = test system: MDA-MB-435
SNB-19 CNS = test system: SNB-19 CNS
HCT-116 colon = test system: HCT-116 colon
LOX IMVI melanoma = test system: LOX IMVI melanoma
COLO 205 colon = test system: COLO 205 colon
DU-145 prostate = test system: DU-145 prostate
MOLT-4 leukemia = test system: MOLT-4 leukemia
CCRF-CEM leukemia = test system: CCRF-CEM leukemia
HL-60(TB) leukemia = test system: HL-60(TB) leukemia
NCI-H460 lung = test system: NCI-H460 lung
BT-549 breast = test system: BT-549 breast
HCC-2998 colon = test system: HCC-2998 colon

With `Oc1ccc(-c2nnc(SCc3ccc(O)c4ncccc34)o2)cc1` the GI50 (HOP-62 NSCLC) was 543 nM, the TGI (HOP-62 NSCLC) was 7590 nM and the GI50 (UACC-62 melanoma) was 2430 nM. It also gave a TGI (UACC-62 melanoma) of 7100 nM, a GI50 (PC-3 prostate) of 584 nM and a TGI (PC-3 prostate) of over 100000 nM. The GI50 (MDA-MB-231 breast) was 1960 nM, the TGI (MDA-MB-231 breast) was 14700 nM and the GI50 (SK-MEL-5 melanoma) was 854 nM. For the same compound, the TGI (SK-MEL-5 melanoma) was over 22800 nM, the GI50 (NCI-H23 lung) was 527 nM and the TGI (NCI-H23 lung) was 11600 nM. For the same compound, the GI50 (SF-268 CNS) was 658 nM, the TGI (SF-268 CNS) was 35300 nM and the GI50 (HOP-92 NSCLC) was 219 nM. It also gave a TGI (HOP-92 NSCLC) of 747 nM, a GI50 (SF-295 CNS) of 978 nM and a TGI (SF-295 CNS) of 10600 nM. For the same compound, the GI50 (UACC-257 melanoma) was 2530 nM, the TGI (UACC-257 melanoma) was 7890 nM and the GI50 (SK-OV-3 ovarian) was 1770 nM. It also gave a TGI (SK-OV-3 ovarian) of 6540 nM, a GI50 (M14 melanoma) of 544 nM and a TGI (M14 melanoma) of 3880 nM. The GI50 (MCF7 breast) was 721 nM, the TGI (MCF7 breast) was over 100000 nM and the GI50 (T-47D breast) was 2430 nM. The TGI (T-47D breast) was 9390 nM, the GI50 (SW-620 colon) was 680 nM and the TGI (SW-620 colon) was over 100000 nM. For the same compound, the GI50 (OVCAR-8 ovarian) was 440 nM, the TGI (OVCAR-8 ovarian) was over 40000 nM and the GI50 (IGROV1 ovarian) was 2230 nM. The TGI (IGROV1 ovarian) was 13200 nM, the GI50 (RPMI-8226 leukemia) was 544 nM and the TGI (RPMI-8226 leukemia) was over 100000 nM. The GI50 (NCI/ADR-RES ovarian) was 1540 nM, the TGI (NCI/ADR-RES ovarian) was over 73700 nM and the GI50 (OVCAR-4 ovarian) was 3410 nM. For the same compound, the TGI (OVCAR-4 ovarian) was over 100000 nM, the GI50 (786-0 renal) was 2640 nM and the TGI (786-0 renal) was 9550 nM. The GI50 (K-562 leukemia) was 418 nM, the TGI (K-562 leukemia) was over 100000 nM and the GI50 (HS 578T breast) was 388 nM. It also gave a TGI (HS 578T breast) of over 22300 nM, a GI50 (CAKI-1 renal) of 2260 nM and a TGI (CAKI-1 renal) of 8840 nM. For the same compound, the GI50 (UO-31 renal) was 1350 nM, the TGI (UO-31 renal) was 6440 nM and the GI50 (SF-539 CNS) was 666 nM. The TGI (SF-539 CNS) was 15000 nM, the GI50 (MALME-3M melanoma) was 1960 nM and the TGI (MALME-3M melanoma) was 17600 nM. It also gave a GI50 (OVCAR-5 ovarian) of 3330 nM, a TGI (OVCAR-5 ovarian) of over 100000 nM and a GI50 (A498 renal) of 2370 nM. For the same compound, the TGI (A498 renal) was 7490 nM, the GI50 (TK-10 renal) was 2250 nM and the TGI (TK-10 renal) was 7840 nM. For the same compound, the GI50 (ACHN renal) was 1080 nM, the TGI (ACHN renal) was 10100 nM and the GI50 (HCT-15 colon) was 510 nM. The TGI (HCT-15 colon) was over 100000 nM, the GI50 (SN12C renal) was 417 nM and the TGI (SN12C renal) was over 38500 nM. The GI50 (NCI-H522 lung) was 402 nM, the TGI (NCI-H522 lung) was 20500 nM and the GI50 (A549 NSCLC) was 839 nM. It also gave a TGI (A549 NSCLC) of over 31100 nM, a GI50 (EKVX NSCLC) of 2630 nM and a TGI (EKVX NSCLC) of 11300 nM. It also gave a GI50 (NCI-H226 lung) of 3130 nM, a TGI (NCI-H226 lung) of over 100000 nM and a GI50 (RXF 393 renal) of 1430 nM. For the same compound, the TGI (RXF 393 renal) was 34300 nM, the GI50 (SK-MEL-28 melanoma) was 2080 nM and the TGI (SK-MEL-28 melanoma) was over 100000 nM. The GI50 (KM12 colon) was 1560 nM, the TGI (KM12 colon) was over 100000 nM and the GI50 (SR leukemia) was 1100 nM. It also gave a TGI (SR leukemia) of over 100000 nM, a GI50 (SNB-75 CNS) of 898 nM and a TGI (SNB-75 CNS) of 8400 nM. The GI50 (SK-MEL-2 melanoma) was 587 nM, the TGI (SK-MEL-2 melanoma) was 6910 nM and the GI50 (HT29 colon) was 3570 nM. It also gave a TGI (HT29 colon) of over 100000 nM, a GI50 (U251 CNS) of 386 nM and a TGI (U251 CNS) of 13700 nM. It also gave a GI50 (MDA-MB-435) of 418 nM, a TGI (MDA-MB-435) of over 100000 nM and a GI50 (SNB-19 CNS) of 450 nM. It also gave a TGI (SNB-19 CNS) of 38200 nM, a GI50 (HCT-116 colon) of 379 nM and a TGI (HCT-116 colon) of 26300 nM. It also gave a GI50 (LOX IMVI melanoma) of 406 nM, a TGI (LOX IMVI melanoma) of 11900 nM and a GI50 (COLO 205 colon) of 3060 nM. It also gave a TGI (COLO 205 colon) of 11400 nM, a GI50 (DU-145 prostate) of 582 nM and a TGI (DU-145 prostate) of 28900 nM. It also gave a GI50 (MOLT-4 leukemia) of 1260 nM, a TGI (MOLT-4 leukemia) of over 100000 nM and a GI50 (CCRF-CEM leukemia) of 833 nM. It also gave a TGI (CCRF-CEM leukemia) of over 100000 nM, a GI50 (HL-60(TB) leukemia) of 1390 nM and a TGI (HL-60(TB) leukemia) of 6190 nM. For the same compound, the GI50 (NCI-H460 lung) was 364 nM, the TGI (NCI-H460 lung) was 5090 nM and the GI50 (BT-549 breast) was 444 nM. For the same compound, the TGI (BT-549 breast) was 21200 nM, the GI50 (HCC-2998 colon) was 3220 nM and the TGI (HCC-2998 colon) was over 68800 nM.

Reference: PubChem BioAssay (NCI)
